Laboratory results: US10870925B2, “Arrays” (SENGENICS CORPORATION PTE LTD, priority 2001, dated 2020)

What was measured:
3A4*2 = biological target: T1, 3A4*2 (Homo sapiens, UniProt P08684, S222P); experiment: BzRes turnover and ketoconazole inhibition, cumene hydrogen peroxide activated purified P450 3A4 isoform; assay type: biochemical; conditions: standard error in parentheses
T1 construct: His-tag (concluded from Ni-NTA / Talon purification); biotinylated tag (BCCP; concluded from streptavidin detection); made in house; host or cells: E. coli XL-10 gold

3A4*15 = 3A4*15 (Homo sapiens, UniProt P08684, R162Q); experiment: as above
3A4*4 = biological target: T2, 3A4*4 (Homo sapiens, UniProt P08684, I118V); experiment: as above; assay type: biochemical; conditions: standard error in parentheses
T2 construct: His-tag (concluded from Ni-NTA / Talon purification); biotinylated tag (BCCP; concluded from streptavidin detection); made in house; host or cells: E. coli XL-10 gold

3A4*5 = biological target: T3, 3A4*5 (Homo sapiens, UniProt P08684, P218R); experiment: as above; assay type: biochemical; conditions: standard error in parentheses
T3 construct: His-tag (concluded from Ni-NTA / Talon purification); biotinylated tag (BCCP; concluded from streptavidin detection); made in house; host or cells: E. coli XL-10 gold

cytochrome P450 3A4 = biological target: T4, cytochrome P450 3A4 (Homo sapiens, UniProt P08684); experiment: BzRes oxidation and ketoconazole inhibition, cytochrome P450 3A4 microsomes in solution and encapsulated in agarose; assay type: biochemical; conditions: standard error in parentheses
T4 construct: host or cells: microsomes

3A4*WT = biological target: T5, 3A4*WT (Homo sapiens, UniProt P08684); experiment: BzRes turnover and ketoconazole inhibition, cumene hydrogen peroxide activated purified P450 3A4 isoform; assay type: biochemical; conditions: standard error in parentheses
T5 construct: His-tag (concluded from Ni-NTA / Talon purification); biotinylated tag (BCCP; concluded from streptavidin detection); made in house; host or cells: E. coli XL-10 gold

3A4*3 = biological target: T6, 3A4*3 (Homo sapiens, UniProt P08684, M445T); experiment: as above; assay type: biochemical; conditions: standard error in parentheses
T6 construct: His-tag (concluded from Ni-NTA / Talon purification); biotinylated tag (BCCP; concluded from streptavidin detection); made in house; host or cells: E. coli XL-10 gold

[1] = tested on: GADD45 promoter element DNA; experiment: Quantitative DNA binding on the p53 protein microarray (33P-labelled duplex DNA); conditions: 33P GADD45 duplex DNA; for DNA binding Bmax (% wild-type) / Kd: room temperature 30 min, confidence limits in parentheses; for GADD45 DNA binding, in words: p53 microarray
[2] = 200 μM cumene hydrogen peroxide
[3] = normalised for P450 concentration and scaled to wild-type
[4] = Gel encapsulated (agarose) microsomes

T4 sequence (P08684 whole entry): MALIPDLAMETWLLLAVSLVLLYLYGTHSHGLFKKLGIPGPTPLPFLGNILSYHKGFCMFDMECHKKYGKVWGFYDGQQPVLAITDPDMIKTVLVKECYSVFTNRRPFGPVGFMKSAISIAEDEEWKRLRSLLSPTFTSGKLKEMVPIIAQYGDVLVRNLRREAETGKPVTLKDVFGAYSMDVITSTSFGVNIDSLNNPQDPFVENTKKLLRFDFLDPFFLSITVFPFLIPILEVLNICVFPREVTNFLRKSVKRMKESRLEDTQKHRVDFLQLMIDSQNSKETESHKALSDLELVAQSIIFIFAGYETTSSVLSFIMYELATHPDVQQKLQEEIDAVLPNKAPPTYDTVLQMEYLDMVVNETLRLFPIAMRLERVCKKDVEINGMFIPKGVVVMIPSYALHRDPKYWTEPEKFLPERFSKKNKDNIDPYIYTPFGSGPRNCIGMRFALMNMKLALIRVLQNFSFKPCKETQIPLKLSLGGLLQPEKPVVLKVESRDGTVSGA
Chain of 3A4*15 (P08684 whole entry R162Q): as the sequence (P08684 whole entry) above, with R162Q counted along it
T3 sequence (P08684 whole entry P218R): as the sequence (P08684 whole entry) above, with P218R counted along it
T1 sequence (P08684 whole entry S222P, canonical isoform): as the sequence (P08684 whole entry) above, with S222P counted along it
T5 sequence (P08684 whole entry, canonical isoform): as the sequence (P08684 whole entry) above
T2 sequence (P08684 whole entry I118V): as the sequence (P08684 whole entry) above, with I118V counted along it
T6 sequence (P08684 whole entry M445T): as the sequence (P08684 whole entry) above, with M445T counted along it

Compound: O=c1ccc2nc3ccc(OCc4ccccc4)cc3oc-2c1 [BzRes, resorufin benzyl ether]
- Km (3A4*2; [2]): 62 µM
- Vmax BzRes (3A4*2; [3]): 65 (9)
- Vmax BzRes (3A4*15; normalised for P450 concentration and scaled to wild-type, standard error in parentheses): 111 (23)
- Km (3A4*15; read-out: KM BzRes, 200 μM cumene hydrogen peroxide, standard error in parentheses): 89 µM
- Km (3A4*4; [2]): 111 µM
- Vmax BzRes (3A4*4; [3]): 69 (22)
- Km (3A4*5; [2]): 101 µM
- Vmax BzRes (3A4*5; [3]): 59 (16)
- BzRes Oxidation Vmax (% of soluble) (cytochrome P450 3A4; [4]): 50 (6) % of soluble
- Km (cytochrome P450 3A4; [4]): 49 µM
- BzRes Oxidation Vmax (% of soluble) (cytochrome P450 3A4; Soluble microsomes): 100 (6) % of soluble
- Km (cytochrome P450 3A4; Soluble microsomes): 20 µM
- Km (3A4*WT; [2]): 104 µM
- Vmax BzRes (3A4*WT; [3]): 100 (34)
- Km (3A4*3; [2]): 54 µM
- Vmax BzRes (3A4*3; [3]): 93 (24)

Compound: G325V: p53 mutant protein, His- and biotin-tagged, E. coli expressed [Mutation G325V]
- DNA binding Bmax (% wild-type) [1]: 73 (67-79) % wild-type
- Kd [1]: 7 nM
- GADD45 DNA binding, in words [1]: near wild-type affinity

Compound: R181C: p53 mutant protein, His- and biotin-tagged, E. coli expressed [Mutation R181C]
- DNA binding Bmax (% wild-type) [1]: 88 (81-95) % wild-type
- Kd [1]: 11 nM
- GADD45 DNA binding, in words [1]: wild-type binding

Compound: R181H: p53 mutant protein, His- and biotin-tagged, E. coli expressed [Mutation R181H]
- DNA binding Bmax (% wild-type) [1]: 48 (40-57) % wild-type
- Kd [1]: 11 nM
- GADD45 DNA binding, in words [1]: wild-type binding

Compound: R280K: p53 mutant protein, His- and biotin-tagged, E. coli expressed [Mutation R280K]
- DNA binding Bmax (% wild-type) [1]: 54 (40-70) % wild-type
- Kd [1]: 21 nM

Compound: S392A: p53 mutant protein, His- and biotin-tagged, E. coli expressed [Mutation S392A]
- DNA binding Bmax (% wild-type) [1]: 121 (107-136) % wild-type
- Kd [1]: 10 nM
